# The source made the active and inactive calls.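 How the source made its calls: active means in confirmatory dose-response testing, peak deubiquitinase inhibition of 30% or more; inactive means the rest.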
# Target: Ubiquitin carboxyl-terminal hydrolase 28 (Homo sapiens) (UniProt Q96RU2)
# Assay: Ubiquitin-specific peptidase 28 DUB inhibitors, biochemical concentration-dependence assay, validation of primary screening hits (AID 1645866)
# Conditions: purified USP28, ubiquitin-rhodamine fluorescence, 30 min
# Sequence of Ubiquitin carboxyl-terminal hydrolase 28 (Homo sapiens) (Q96RU2 whole entry, looked up): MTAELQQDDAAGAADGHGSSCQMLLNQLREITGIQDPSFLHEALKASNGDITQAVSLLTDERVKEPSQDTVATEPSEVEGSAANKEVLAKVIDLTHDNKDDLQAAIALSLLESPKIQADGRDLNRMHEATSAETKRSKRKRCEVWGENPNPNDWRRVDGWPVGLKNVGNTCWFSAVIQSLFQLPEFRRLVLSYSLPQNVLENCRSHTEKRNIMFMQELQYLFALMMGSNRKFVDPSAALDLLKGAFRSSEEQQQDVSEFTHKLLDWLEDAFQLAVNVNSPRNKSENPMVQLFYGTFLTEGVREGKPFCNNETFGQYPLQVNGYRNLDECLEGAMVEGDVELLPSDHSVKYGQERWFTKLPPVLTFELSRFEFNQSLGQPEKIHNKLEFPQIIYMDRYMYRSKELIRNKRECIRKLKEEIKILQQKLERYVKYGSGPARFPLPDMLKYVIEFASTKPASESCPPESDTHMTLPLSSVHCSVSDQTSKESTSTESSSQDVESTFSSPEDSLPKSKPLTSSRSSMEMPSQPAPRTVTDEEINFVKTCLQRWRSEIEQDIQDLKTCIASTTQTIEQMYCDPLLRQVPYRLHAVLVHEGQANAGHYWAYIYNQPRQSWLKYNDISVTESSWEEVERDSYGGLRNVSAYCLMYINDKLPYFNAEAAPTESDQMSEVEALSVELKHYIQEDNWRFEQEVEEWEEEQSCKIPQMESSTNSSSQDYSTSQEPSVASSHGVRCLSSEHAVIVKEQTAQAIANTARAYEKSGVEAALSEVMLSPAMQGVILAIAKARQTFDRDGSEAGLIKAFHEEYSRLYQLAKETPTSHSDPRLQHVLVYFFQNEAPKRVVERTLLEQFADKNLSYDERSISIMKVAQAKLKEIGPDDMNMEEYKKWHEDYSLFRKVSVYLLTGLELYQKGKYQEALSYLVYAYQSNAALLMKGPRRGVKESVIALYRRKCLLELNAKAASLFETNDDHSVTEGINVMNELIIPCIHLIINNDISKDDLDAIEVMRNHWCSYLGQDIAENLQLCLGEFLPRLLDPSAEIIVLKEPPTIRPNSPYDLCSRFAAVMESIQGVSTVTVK
row,SMILES,IC50
1,O=C(CCCC(=O)c1ccccc1)Nc1ccc(F)cc1,35 µM
2,Cc1ccc(-n2c(=O)[nH]c3c(C(N)=O)nc(-c4cccnc4)nc32)cc1,6.87 µM
3,N#Cc1ccccc1Cn1c(=O)n(Cc2ccco2)c(=O)c2ccccc21,7.54 µM
4,O=C(NCc1ccncc1)C1CCN(c2cncnc2N2CCCCC2)CC1,1.82 µM
5,Fc1ccc(Cc2nc(-c3ccc4nncn4c3)no2)cc1,15.1 µM
6,COc1ccc2nc3c(cc2c1)c(=O)n(C)c1c3c(=O)n(-c2ccccc2)c(=O)n1-c1ccccc1,> 50 µM (inactive)
7,O=C(NCc1ccc(-c2nc3cnccc3o2)cc1)c1ccccc1Br,> 50 µM (inactive)
8,COC(=O)c1ccc(NC(=O)CSc2nnc(-c3ccc(O)cc3)n2Cc2ccco2)cc1,33.9 µM
9,N#Cc1ccc(Cn2nnc(-c3cccc(Cl)c3)n2)cc1,8.66 µM
10,CCCCCC(=O)N1c2ccccc2NC2=C(C(=O)CC(c3ccc(C(C)(C)C)cc3)C2)C1c1ccncc1 (stereo not given),11.4 µM
11,COc1cc2c(cc1NC(=O)c1ccc(-n3cnnn3)cc1)oc1ccccc12,1.33 µM
12,CCCNC(=O)c1ccn(-c2ccc3ccc(-c4cnn(C)c4)cn23)n1,> 50 µM (inactive)
13,CN(C)Cc1ccc(C(=O)Nc2ccc(-c3nccs3)cc2)cc1,1.1 µM
14,C/C1=C/C=C/[C@H](C)[C@H](O)[C@@H](C)[C@@H](O)[C@@H](C)[C@H](O)[C@H](C)[C@@H](O)[C@@H](C)/C=C(/C)C(=O)c2c(O)c(C)cc3c2C(=O)C=C(NC1=O)C3=O,> 50 µM (inactive)
15,COc1ccc(O)c(C(=O)OCc2cc(=O)oc3ccc4ccccc4c23)c1,> 50 µM (inactive)
16,COc1ccc(-c2nc(C)c(C(=O)NCc3ccc(S(N)(=O)=O)cc3)s2)cc1,> 50 µM (inactive)
17,CC(=O)N1CCc2cc(S(=O)(=O)NCCC(=O)Nc3cccc(C)c3C)ccc21,34 µM
18,CCc1ccc(NC(=O)Cc2nnc3cc(-c4nc(C)no4)ccn23)cc1,4.07 µM
19,O=C(COc1cc([N+](=O)[O-])cc2cccnc12)NCCC1=CCCCC1,28.6 µM
20,Cc1ccc2c(c1C)NC(=O)[C@]21[C@@H]2C(=O)N(c3cc(Cl)ccc3Cl)C(=O)[C@@H]2[C@@H]2CCCN21,> 50 µM (inactive)
21,Cc1ccc(S(=O)(=O)Nc2ccccc2SCCS(=O)(=O)c2ccc(Cl)cc2)cc1,> 50 µM (inactive)
22,COCCNC(=O)c1cc(-c2cn(-c3ccccn3)c(C)n2)n2ccccc12,> 50 µM (inactive)
23,CC1CCCN(CCCNC(=O)c2ccc(N3CCc4ccccc43)s2)C1 (stereo not given),18.5 µM
24,Cc1cccc(C)c1NC(=O)Cn1c(=O)n(CCCCC(=O)NCc2ccc3c(c2)OCO3)c(=O)c2ccccc21,1.88 µM
25,Cc1c(-c2ccccc2)oc2c(C(=O)OCC(=O)Nc3ccccc3F)cccc2c1=O,> 50 µM (inactive)

row,SMILES,IC50
1,O=[N+]([O-])c1ccc(NCC2COc3ccccc3O2)c(Cl)c1 (stereo not given),3.75 µM
2,Cc1ccccc1N1C(=O)/C(=C\c2cccn2C)c2ccccc2C1=O,> 50 µM (inactive)
3,COc1ccc(CNC(=O)CN2C(=O)CC(c3ccccc3)=Nc3ccccc32)cc1,11.9 µM
4,COc1ccc(C(=O)NCCc2nnc3ccc(SCC(=O)NCc4ccc(F)cc4)nn23)cc1,15.7 µM
5,CCC[C@H]1O[C@@H]2CC(=O)O[C@@H]2C2=C1C(=O)c1c(O)cccc1C2=O,14.3 µM
6,O=c1c2cnc3nc(-c4cccnc4)nn3c2ccn1CCc1ccccc1,> 50 µM (inactive)
7,Cc1ccnc(NC(=O)c2ccn(COc3ccc(Cl)cc3)n2)c1,21.9 µM
8,CCCCc1ccc(-c2cc(C(=O)NCCN3CCOCC3)c3cc(Br)ccc3n2)cc1,14.9 µM
9,COc1cccc2c1NC(=O)C21CCN(C(=O)Nc2cccc3ccccc23)CC1,> 50 µM (inactive)
10,Cc1nc(-c2ccc(-n3cc(C(=O)Nc4cccc(F)c4)c(C)n3)cc2)no1,42.5 µM
11,COc1ccc(N(CC(=O)NC2CCCCC2)C(=O)c2ccc(-c3ccccc3)[nH]2)cc1OC,4.16 µM
12,CC(=O)c1ccc(NC(=O)/C(=C/c2ccco2)n2nnnc2-c2ccccc2)cc1,40.5 µM
13,COc1ccc(CC(=O)Nc2cccc(-c3nc4ncccc4o3)c2)cc1OC,> 50 µM (inactive)
14,Cc1ccc(C)c(Cn2nnc3c(=O)[nH]c(C4CCN(S(=O)(=O)c5ccc(S(=O)(=O)NC6CC6)cc5)CC4)nc32)c1,9.09 µM
15,Cc1ccc2c(c1)-c1c(c(C(=O)N3CCN(c4ccccc4)CC3)nn1C)CS2,> 50 µM (inactive)
16,CCCc1cc(=O)n2[nH]c(COc3ccccc3)c(-c3ccccc3)c2n1,28.8 µM
17,CCc1noc(-c2ccc(OCC(=O)Nc3ccc(C)cc3C)cc2)n1,33.7 µM
18,COc1ccc(NC(=O)Cn2c(CSc3ccc(C)cc3)nc3ccccc32)cc1,20.8 µM
19,Cc1cccc(NC(=O)CSc2ccc(-n3cnc(-c4ccccc4)c3)nn2)c1,16.5 µM
20,Fc1ccccc1N1CCN(c2ncc3c(n2)CCN(Cc2ccccn2)C3)CC1,31 µM
21,O=C(Nc1cccc(C(F)(F)F)c1)N1CCCn2c(nc3ccccc32)C1,20.3 µM
22,NC(=O)c1nc(-c2ccccn2)nc2c1[nH]c(=O)n2-c1ccc2c(c1)OCO2,6.72 µM
23,NC(=O)c1ccc(NC(=O)Cc2cc(-c3ccc(Cl)cc3)on2)cc1,> 50 µM (inactive)
24,CC1(C)Cc2c(c(-c3ccco3)nc3sc4c(SCCCc5ccccc5)ncnc4c23)CO1,34.9 µM
25,O=C(Cn1c(CSc2ccccc2)nc2ccccc21)Nc1ccccc1F,26.4 µM
